Assay results: patent US6799123B2, “Dissolution test equipment and method” (priority 2001, dated 2004)
Like-named read-outs stand apart in the source and are kept apart here.

Experiments:
[1] = Single cell dissolution test (comparative); format: physicochemical; details: flow rate optimized to match in vivo data
Procedure: Equipment was set up as follows: A continuous, stirred, filtration cell, such as the Amicon stirred ultrafiltration cell model 8050, available from Millipore Corporation, was equipped with a peristaltic pump to feed fluid into the cell at a rate in the range 3-10 ml/min. The filtrate from the cell was passed into a 1 cm path length flow-through quartz uv cell. The uv cell is situated in a suitable uv spectrophotometer, such as the Genesys 2, UV Spectrophotemer available from Spectronic Instruments. The filtration cell was fitted with a 3 micron filter to retain undissolved particles. 60 ml of simulated intestinal fluid pH 7.4 was added to the filtration cell, and then simulated intestinal fluid was fed into it via the pump at a flow rate of 6.5 ml/min. This was continued until the absorbance at 276 nm as measured in the uv cell was constant. 50 mg of diclofenac sodium was then added to the filtration cell. The uv absorbance at 276 nm of the effluent from the cell was recorded through the duration of the test. The concentration was calculated using a suitably determined calibration curve. In Table 1 the data from this experiment is compared with in vivo data reported in U.S. Pat. No. 4,510,128. The flow rate for this example was optimized such that the uv absorbance returned to baseline within approximately the same time (8 hours) as the in vivo data.

[2] = cited from earlier work
[3] = in vivo blood plasma concentration profile from literature; cited from earlier work

Row | Structure (SMILES) | time for uv absorbance of effluent to return to baseline [1] [h] | solubility ([2]; low pH of the stomach) | solubility ([2]; near neutral conditions of the upper GI) | t10 for in vivo data (time after Cmax to fall to 10% of Cmax) [3] [min] | tmax for in vivo data [3] [h]
1 | O=C(O)Cc1ccccc1Nc1c(Cl)cccc1Cl [diclofenac sodium] | ~8 | essentially insoluble | soluble |  | 
2 | CC(C)Cc1ccc(C(C)C(=O)O)cc1 (stereo not drawn) [ibuprofen] |  |  |  | 410 | 1.17
3 | CC(=O)Nc1ccc(O)cc1 [paracetamol] |  |  |  | 510 | 0.55
4 | CN[C@@H](C)[C@@H](O)c1ccccc1 [pseudoephedrine] |  |  |  | 1380 | 1.5
